Data from EP1268487B1, “TRICYCLIC PROTEIN KINASE INHIBITORS” (Wyeth, priority 2000, dated 2001).
pIC50: −log10 of the molar value. ≈ marks a conversion by molar mass, not a printed value. Values belong to the compound of their own block, whether it stands above or below them.

Key:
[1] = system: Human Epidermoid Tumors (A431); test: In vivo inhibition of the growth of human epidermoid tumors (A431); set-up: species or system BALB/c nu/nu female mice; settings: for %T/C / RTG Day 7 / RTG Day 14 / RTG Day 21: days 1 through 10; for S/T: # of Survivors/# of Treated on Day +21
Description: BALB/c nu/nu female mice (Charles River, Wilmington, MA) were used in the in vivo standard pharmacological test procedures. Human epidermoid carcinoma cells A-431 (American Type Culture Collection, Rockville, Maryland # CRL-155) were grown in vitro as described above. A unit of 5 X 10^6 cells were injected subcutaneously into mice. When tumors attained a mass of between 100 and 150 mg, the mice were randomized into treatment groups (day zero). Mice were treated orally (PO) once a day on days 1 through 10 post staging with doses of either 40, 20, 10, 3 or 1 mg/kg/dose of the compound to be evaluated in 0.2% Klucel. Control animals received no drug. Tumor mass was determined every 7 days [(length X width^2)/2] for 28 days post staging. Relative tumor growth (Mean tumor mass on day 7, 14, and 21 divided by the mean tumor mass on day zero) is determined for each treatment group. The %T/C (Tumor/Control) is determined by dividing the relative tumor growth of the treated group by the relative tumor growth of the placebo group and multiplying by 100. A compound is considered to be active if the %T/C is found to be […].

A431 = test: Inhibition of cancer cell growth as measured by cell number (Sulforhodamine B); type: cell-based; settings: Homo sapiens, A-431; 48 hours exposure
Description: (§1) Human tumor cell lines were plated in 96-well plates (250 µl/well, 1-6 x 10^4 cells/ml) in RPMI 1640 medium, containing 5% FBS (Fetal Bovine Serum). […] After 48 hours exposure to test compounds, cells were fixed with trichloroacetic acid, and stained with Sulforhodamine B. After washing with trichloroacetic acid, bound dye was solubilized in 10 mM Tris base and optical density was determined using a plate reader. Under conditions of the assay the optical density is proportional to the number of cells in the well. IC50s (concentrations causing 50% inhibition of cell growth) were determined from the growth inhibition plots. The test procedure is described in details by Philip Skehan et. al, J.Natl. Canc. Inst., 82, 1107-1112 (1990). […] Information about some of the cell lines used in these test procedures is available from the American Type Tissue Collection: Cell Lines and Hybridomas, 1994 Reference Guide, 8th Edition. The Her2Neu cell line is a 3T3 line that has been transfected with Her2 receptor kinase.

SW620 = test: as above; type: cell-based; settings: Homo sapiens, SW-620; 48 hours exposure
Description: as §1

Her2Neu = test: as above; type: cell-based; settings: 48 hours exposure; 3T3 line transfected with Her2 receptor kinase
Description: as §1

MDA435 = test: as above; type: cell-based; settings: Homo sapiens, 48 hours exposure
Description: as §1

3T3 = test: as above; type: cell-based; settings: Mus musculus, NIH3T3; 48 hours exposure
Description: as §1

[2] = biological target: T1, Epidermal Growth Factor Receptor Kinase (EGF-R) (Homo sapiens, UniProt P00533); test: Inhibition of Epidermal Growth Factor Receptor Kinase (EGF-R) using recombinant enzyme; type: biochemical; settings: for inhibition at 0.5 µM: 0.5 µM concentration of test compound
T1 construct: containing the EGFR cDNA encoding amino acids 645 - 1186 preceded by Met-Ala-(His)6; Met-Ala-(His)6 (N); made in house; host or cells: Sf9 insect cells (baculovirus vHcEGFR52)
T1 sequence (P00533 669-1210): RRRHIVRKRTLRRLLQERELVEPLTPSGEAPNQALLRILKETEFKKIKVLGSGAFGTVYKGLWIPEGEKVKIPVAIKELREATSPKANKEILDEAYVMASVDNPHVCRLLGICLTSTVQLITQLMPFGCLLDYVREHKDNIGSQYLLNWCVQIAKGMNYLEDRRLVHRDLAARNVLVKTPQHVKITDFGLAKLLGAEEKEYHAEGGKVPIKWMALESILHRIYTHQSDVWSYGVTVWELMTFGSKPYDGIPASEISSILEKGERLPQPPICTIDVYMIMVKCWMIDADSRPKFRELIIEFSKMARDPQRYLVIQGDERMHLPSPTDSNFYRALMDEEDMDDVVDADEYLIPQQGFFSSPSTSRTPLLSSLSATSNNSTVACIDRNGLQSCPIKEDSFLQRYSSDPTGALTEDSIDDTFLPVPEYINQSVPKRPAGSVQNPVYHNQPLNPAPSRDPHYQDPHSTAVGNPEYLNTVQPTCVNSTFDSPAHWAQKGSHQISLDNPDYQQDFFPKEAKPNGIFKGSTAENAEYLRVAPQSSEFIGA
Description: Representative test compounds were evaluated for their ability to inhibit the phosphorylation of the tyrosine residue of a peptide substrate catalyzed by the enzyme epidermal growth factor receptor kinase. The peptide substrate (RR-SRC) has the sequence arg-arg-leu-ile-glu-asp-ala-glu-tyr-ala-ala-arg-gly. The enzyme used in this assay is the His-tagged cytoplasmic domain of EGFR. A recombinant baculovirus (vHcEGFR52) was constructed containing the EGFR cDNA encoding amino acids 645 - 1186 preceded by Met-Ala-(His)6. Sf9 cells in 100 mm plates were infected at an moi of 10 pfu/cell and cells were harvested 48 hours post infection. A cytoplasmic extract was prepared using 1% Triton X-100 and applied to Ni-NTA column. After washing the column with 20 mM imidazole, HcEGFR was eluted with 250 mM imidazole (in 50 mM Na2HPO4, pH 8.0, 300 mM NaCl). Fractions collected were dialyzed against 10 mM HEPES, pH 7.0, 50 mM NaCl, 10% glycerol, 1µg/mL antipain and leupeptin and 0.1 mM Pefabloc SC. The protein was frozen in dry ice/methanol and stored -70° C.
Test compounds were made into 10 mg/mL stock solutions in 100% dimethylsulfoxide (DMSO). Prior to experiment, stock solutions were diluted to 500 µM with 100% DMSO and then serially diluted to the desired concentration with HEPES buffer (30 mM HEPES pH 7.4).
For the enzyme reaction, 10 µL of each inhibitor (at various concentrations) were added to each well of a 96-well plate. To this was added 3 µL of enzyme (1:10 dilution in 10mM HEPES, pH 7.4 for final conc. of 1:120). This was allowed to sit for 10 minutes on ice and was followed by the addition of 5 µl peptide (80 uM final conc.), 10µl of 4X Buffer (Table A), 0.25 µL ^33P-ATP and 12 µL H2O. The reaction was allowed to run for 90 minutes at room temperature and was followed by spotting the entire volume on to precut P81 filter papers. The filter discs were washed 2X with 0.5% phosphoric acid and radioactivity was measured using a liquid scintillation counter. Table A
The inhibition data for representative compounds of the invention are shown below in TABLE 1. The IC50 is the concentration of test compound needed to reduce the total amount of phosphorylated substrate by 50%. The % inhibition of the test compound was determined for at least three different concentrations and the IC50 value was evaluated from the dose response curve. […] CPM(control) is in units of counts per minute and was a number expressing the amount of radiolabeled ATP (γ-^33P) incorporated into the RR-SRC peptide substrate by the enzyme after 90 minutes at room temperature in the absence of test compound as measured by liquid scintillation counting. The CPM values were corrected for the background counts produced by ATP in the absence of the enzymatic reaction. Where it was possible to determine an IC50 value, this is reported in TABLE 1 otherwise the % inhibition at 0.5 µM concentration of test compound is shown in TABLE 1.

c-Met = biological target: T2, c-Met (Homo sapiens, UniProt P08581); test: DELFIA assay for c-Met receptor kinase inhibitors; type: biochemical
T2 construct: The cytoplasmic domain of c-Met was generated by reverse transcriptase-polymerase chain reaction; His tag (from pFastBac-HTc vector; purified on Ni-NTA/Talon); made in house; host or cells: Sf9 insect cells (baculovirus)
T2 sequence (P08581 956-1390 limits assumed): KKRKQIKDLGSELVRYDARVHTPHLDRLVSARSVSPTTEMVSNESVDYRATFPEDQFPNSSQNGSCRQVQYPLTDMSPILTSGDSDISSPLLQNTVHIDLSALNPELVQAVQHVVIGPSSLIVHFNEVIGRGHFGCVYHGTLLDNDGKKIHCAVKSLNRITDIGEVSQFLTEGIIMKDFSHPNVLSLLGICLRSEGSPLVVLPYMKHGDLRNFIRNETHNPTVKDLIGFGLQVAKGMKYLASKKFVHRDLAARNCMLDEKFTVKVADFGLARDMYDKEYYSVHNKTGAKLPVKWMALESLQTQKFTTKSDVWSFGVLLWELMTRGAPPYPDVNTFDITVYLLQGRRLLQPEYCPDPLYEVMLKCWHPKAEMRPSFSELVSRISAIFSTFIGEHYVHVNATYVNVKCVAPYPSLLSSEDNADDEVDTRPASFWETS
Description: The c-Met kinase assay was performed as a DELFIA (dissociation enchanced lanthanide fluorometric immunoassay), an ELISA-like protocol based upon time-resolved fluorometry as described previously [Braunwalder, A. F., Yarwood, D.R., Sills, M.A., and Lipson, K.E., Anal. Biochem. 238, 159-164 (1996)]. The protocol was adopted for the screening of inhibitors of the kinase activity of recombinant c-Met. [Loganzo, F., and. Hardy, C., American Biotechnology Laboratory 16(13), 26-28 (1998)]. The cytoplasmic domain of c-Met was generated by reverse transcriptase-polymerase chain reaction using RNA isolated from human mammary epithelial cells as template, cloned into the pFastBac-HTc vector (Life Technologies) and protein expressed in Sf9 insect cells by baculovirus infection. Protein was purified by imidazole elution from Ni-NTA resin (Invitrogen, Carlsbad, CA) or Talon resin (Clontech, Palo Alto, CA). Various conditions were evaluated for the kinase screening protocol and screening was accomplished with the following method. Polystyrene Maxisorp plates (Nunc) were pre-coated for 1 hour to overnight at room temperature with 5 µg/ml poly(Glu4-Tyr) diluted in Tris-buffered saline (TBS). Plates were washed 3X with TBS. c-Met protein preparation was diluted 1:80 into 0.1% BSA/ 4 mM HEPES. A master mix was prepared consisting of: 1 volume of diluted c-Met, 1 volume of 5X buffer (20 mM HEPES, pH 7.4; 2 mM MnCl2; 100 µM Na3VO4; 1 mM DTT), 0.9 volume of water. Master mix (29 µl) was added to the wells of peptide-coated microtiter plates. For assays where c-Met autophosphorylation was evaluated, plates were uncoated and c-Met was diluted into 4 mM HEPES at 1:40 without BSA. Compounds (1 µl) at various dilutions (1 mM to 0.1 µM) prepared in DMSO were added and mixed well with an automatic piptettor. After incubation 20 minutes at room temperature, the reaction was initiated with 20 µl of 62.5 µM ATP/ 50 mM MgCl2 (final 25 µM ATP/ 20 mM MgCl2 in assay). Reactions were incubated 45 minutes at room temperature. Plates were then washed 3X with 100 µl each of DELFIA wash buffer (Wallac). Antibody binding was performed by adding 75 µl of Europium-conjugated anti-phosphotyrosine diluted 1:2000 in Assay Buffer (Wallac) for 1 hour at room temperature. Plates were washed 3X with DELFIA wash buffer. Detection was done by addition of 100 µl of Enhancement Solution (Wallac). After 30 minutes, plates were read in a Wallac VICTOR-2 time-resolved fluorometer. Inhibition data was reported as europium counts for compound treated wells normalized to control counts. IC50 values were obtained by using log doses of compound and calculated using Data Analysis Toolbox software, version 1.0.2 (MDL Information Systems, Inc.).

SKBR3 = test: Inhibition of cancer cell growth as measured by cell number (Sulforhodamine B); type: cell-based; settings: Homo sapiens, SK-BR-3; 48 hours exposure
Description: as §1

IC50 (A431): 0.108 µg/mL (≈ 0.232 µM)
IC50 (SW620): 0.165 µg/mL (≈ 0.354 µM)
IC50 (Her2Neu): 0.15 µg/mL (≈ 0.323 µM)
IC50 (MDA435): 0.24 µg/mL (≈ 0.515 µM)
inhibition at 0.5 µM [2]: 56.5%
pIC50 ([2]; recombinant enzyme): 6.77
Structure (SMILES): CN(C)C/C=C/C(=O)N1CCOc2cc3ncc(C#N)c(Nc4ccc(F)c(Cl)c4)c3cc21 [Example 9, 9-(3-Chloro-4-fluoroanilino)-1-[(2E)-4-(dimethylamino)-2-butenoyl]-2,3-dihydro-1H-[1,4]oxazino[3,2-g]quinoline-8-carbonitrile]
%T/C ([1]; 1 mg/kg/dose PO, Day 7): 103%
RTG Day 7 ([1]; 1 mg/kg/dose PO, Day 7): 4.66
%T/C ([1]; 1 mg/kg/dose PO, Day 14): 73%
RTG Day 14 ([1]; 1 mg/kg/dose PO, Day 14): 8.11
%T/C ([1]; 1 mg/kg/dose PO, Day 21): 76%
RTG Day 21 ([1]; 1 mg/kg/dose PO, Day 21): 13.23
S/T ([1]; 1 mg/kg/dose PO): 5/5
%T/C ([1]; 3 mg/kg/dose PO, Day 7): 104%
RTG Day 7 ([1]; 3 mg/kg/dose PO, Day 7): 4.76
%T/C ([1]; 3 mg/kg/dose PO, Day 14): 107%
RTG Day 14 ([1]; 3 mg/kg/dose PO, Day 14): 11.79
%T/C ([1]; 3 mg/kg/dose PO, Day 21): 137%
RTG Day 21 ([1]; 3 mg/kg/dose PO, Day 21): 23.77
S/T ([1]; 3 mg/kg/dose PO): 5/5
%T/C ([1]; 10 mg/kg/dose PO, Day 7): 105%
RTG Day 7 ([1]; 10 mg/kg/dose PO, Day 7): 4.81
%T/C ([1]; 10 mg/kg/dose PO, Day 14): 87%
RTG Day 14 ([1]; 10 mg/kg/dose PO, Day 14): 9.66
%T/C ([1]; 10 mg/kg/dose PO, Day 21): 64%
RTG Day 21 ([1]; 10 mg/kg/dose PO, Day 21): 11.49
S/T ([1]; 10 mg/kg/dose PO): 5/5
%T/C ([1]; 20 mg/kg/dose PO, Day 7): 118%
RTG Day 7 ([1]; 20 mg/kg/dose PO, Day 7): 5.40
%T/C ([1]; 20 mg/kg/dose PO, Day 14): 96%
RTG Day 14 ([1]; 20 mg/kg/dose PO, Day 14): 10.56
%T/C ([1]; 20 mg/kg/dose PO, Day 21): 84%
RTG Day 21 ([1]; 20 mg/kg/dose PO, Day 21): 14.56
S/T ([1]; 20 mg/kg/dose PO): 5/5
%T/C ([1]; 40 mg/kg/dose PO, Day 7): 75%
RTG Day 7 ([1]; 40 mg/kg/dose PO, Day 7): 3.40
%T/C ([1]; 40 mg/kg/dose PO, Day 14): 53%
RTG Day 14 ([1]; 40 mg/kg/dose PO, Day 14): 5.93
%T/C ([1]; 40 mg/kg/dose PO, Day 21): 41%
RTG Day 21 ([1]; 40 mg/kg/dose PO, Day 21): 7.15
S/T ([1]; 40 mg/kg/dose PO): 5/5
inhibition of tumor growth in vivo ([1]; summary statement in words): effective inhibitor of tumor growth in vivo
IC50 (3T3): 0.169 µg/mL (≈ 0.364 µM)

inhibition at 10 µg/mL (c-Met): 50%
IC50 (A431): 1.01 µg/mL (≈ 2.15 µM)
IC50 (SKBR3): 1.07 µg/mL (≈ 2.28 µM)
IC50 (SW620): 1.89 µg/mL (≈ 4.04 µM)
IC50 (Her2Neu): > 5 µg/mL
IC50 (MDA435): 2.72 µg/mL (≈ 5.81 µM)
inhibition at 0.5 µM [2]: 57.8%
Structure (SMILES): CN(C)CCCC(=O)N1CCOc2cc3ncc(C#N)c(Nc4ccc(F)c(Cl)c4)c3cc21 [Example 10]
IC50 (3T3): 1.99 µg/mL (≈ 4.25 µM)
